Experimental data from PMC7660557, “Identification of a non-classical three-dimensional nuclear localization signal in the intestinal fatty acid binding protein” (PLoS ONE, 2020).

What was measured:
Experiment in all cases: fluorescence titration of purified protein, hyperbolic fit, […]°C
[1] = target: T1, drFabp2 (intestinal fatty acid binding protein) (Danio rerio, UniProt A0A8M1P5F0, K17A/K30A/R29A)
T1 construct: gene fabp2; Full-length mutant, recombinant from E. coli BL21 (DE3), delipidated (apo)

[2] = target: T2, drFabp2 (intestinal fatty acid binding protein) (Danio rerio, UniProt A0A8M1P5F0, K17A/K28A/R29A)
T2 construct: gene fabp2; Full-length mutant, recombinant from E. coli BL21 (DE3), delipidated (apo)

[3] = target: T3, drFabp2 (intestinal fatty acid binding protein) (Danio rerio, UniProt A0A8M1P5F0)
T3 construct: gene fabp2; Full-length wild-type, recombinant from E. coli BL21 (DE3), delipidated (apo)
T3 sequence (A0A8M1P5F0 1-132): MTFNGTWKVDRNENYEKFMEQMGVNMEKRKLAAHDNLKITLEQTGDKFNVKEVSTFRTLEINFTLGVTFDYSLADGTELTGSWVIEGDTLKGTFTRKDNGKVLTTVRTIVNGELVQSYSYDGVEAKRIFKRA

T1 sequence (A0A8M1P5F0 entry or part of it K17A/R29A/K30A): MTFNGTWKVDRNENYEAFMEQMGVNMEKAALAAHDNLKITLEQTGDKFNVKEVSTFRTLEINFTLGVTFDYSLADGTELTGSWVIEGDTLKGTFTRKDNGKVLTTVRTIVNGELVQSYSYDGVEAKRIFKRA
T2 sequence (A0A8M1P5F0 entry or part of it K17A/K28A/R29A): as the sequence (A0A8M1P5F0 entry or part of it K17A/R29A/K30A) above, with K28A, A30K counted along it

## CC1=CC(C)=[N+]2C1=Cc1ccc(CCCCCCCCCCCCCCCC(=O)O)n1[B-]2(F)F [BODIPY FL C16]
[1]
  Kd: 129 nM
[2]
  Kd: 112 nM
[3]
  Kd: 160 nM
